Results published in patent publication US11285127B2, “Compositions and methods for lowering triglycerides without raising LDL-C levels in a subject on concomitant statin therapy” (Amarin Pharmaceuticals Ireland Limited, priority 2013, dated 2022).

System: patients with fasting triglyceride levels >200 mg/dl and <500 mg/dl despite statin therapy
Experiment: 12-week study: inflammatory biomarkers (ICAM-1, interleukin, PAI-1, hsCRP)
Assay type: in vivo, human
Conditions: MITT; for ICAM-1, Difference from placebo, Estimated median / IL-6, Difference from placebo, Estimated median / PAI-1, Difference from placebo, Estimated median / hsCRP, Difference from placebo, Estimated median: Week 12; for hsCRP, Difference from placebo, Estimated median: post-hoc, median percent change from baseline; for ICAM-1, Week 12 EP Median (IQR) / IL-6, Week 12 EP Median (IQR) / PAI-1, Week 12 EP Median (IQR) / hsCRP, Week 12 EP Median (IQR): Week 12 endpoint (LOCF); for hsCRP, Week 12 EP Median (IQR) / hsCRP, Median % Chg from BL (IQR): post-hoc analysis; for ICAM-1, change from Baseline, Median (IQR) / IL-6, change from Baseline, Median (IQR) / PAI-1, change from Baseline, Median (IQR) / hsCRP, Median % Chg from BL (IQR): baseline to Week 12
Excerpt: Parameters (a)-(z) can be measured in accordance with any clinically acceptable methodology. For example, triglycerides, total cholesterol, HDL-C and fasting blood sugar can be sample from serum and analyzed using standard photometry techniques. VLDL-TG, LDL-C and VLDL-C can be calculated or determined using serum lipoprotein fractionation by preparative ultracentrifugation and subsequent quantitative analysis by refractometry or by analytic ultracentrifugal methodology. Apo A1, Apo B and hsCRP can be determined from serum using standard nephelometry techniques. Lipoprotein (a) can be determined from serum using standard turbidimetric immunoassay techniques. LDL particle number and particle size can be determined using nuclear magnetic resonance (NMR) spectrometry. Remnants lipoproteins and LDL-phospholipase A2 can be determined from EDTA plasma or serum and serum, respectively, using enzymatic immunoseparation techniques. Oxidized LDL, intercellular adhesion molecule-1 and interleukin-2 levels can be determined from serum using standard enzyme immunoassay techniques. These techniques are described in detail in standard textbooks, for example Tietz Fundamentals of Clinical Chemistry, 6th Ed. (Burtis, Ashwood and Borter Eds.), WB Saunders Company.
A multi-center, placebo-controlled, randomized, double-blind, 12-week study was performed to evaluate the efficacy and safety of >96% E-EPA in patients with fasting triglyceride levels >200 mg/dl and <500 mg/dl despite statin therapy (the mean of two qualifying entry values needed to be >185 mg/dl and at least one of the values needed to be >200 mg/dl). The primary objective of the study was to determine the efficacy of >96% E-EPA 2 g daily and 4 g daily, compared to placebo, in lowering fasting TG levels in patients with high risk for cardiovascular disease and with fasting TG levels 200 mg/dl and <500 mg/dl, despite treatment to LDL-C goal on statin therapy.
The secondary objectives of this study were the following: • 1. To determine the safety and tolerability of >96% E-EPA 2 g daily and 4 g daily; • 2. To determine the effect of >96% E-EPA on lipid and apolipoprotein profiles including total cholesterol (TC), non-high-density lipoprotein cholesterol (non-HDL-C), low density lipoprotein cholesterol (LDL-C), high density lipoprotein cholesterol (HDL-C), and […]; • 3. To determine the effect of >96% E-EPA on lipoprotein associated phospholipase A2 (Lp-PLA2) from baseline to week 12; • 4. To determine the effect of >96% E-EPA on low-density lipoprotein (LDL) particle number and size; • 5. To determine the effect of >96% E-EPA on oxidized LDL; • 6. To determine the effect of >96% E-EPA on fasting plasma glucose (FPG) and hemoglobin A1c (HbA1c); • 7. To determine the effect of >96% E-EPA on insulin resistance; • 8. To determine the effect of >96% E-EPA on high-sensitivity C-reactive protein (hsCRP); • 9. To determine the effects of >96% E-EPA 2 g daily and 4 g daily on the incorporation of fatty acids into red blood cell membranes and into plasma phospholipids; • 10. To explore the relationship between baseline fasting TG levels and the reduction in fasting TG levels; and • 11. To explore the relationship between changes of fatty acid concentrations in plasma and red blood cell membranes, and the reduction in fasting TG levels.
The primary efficacy variable for the double-blind treatment period was percent change in TG from baseline to Week 12 endpoint. […]

[1] = AMR101 2 g/d + statin vs placebo
[2] = AMR101 4 g/d + statin vs placebo

Question: Which results are given for `CC/C=C\C/C=C\C/C=C\C/C=C\C/C=C\CCCC(=O)OCC` [AMR101, ethyl eicosapentaenoate]?
Answer: ICAM-1, Difference from placebo, Estimated median [1]: -6.0 ng/mL; IL-6, Difference from placebo, Estimated median [1]: 0.1 pg/mL; PAI-1, Difference from placebo, Estimated median [1]: 12.1 ng/mL; hsCRP, Difference from placebo, Estimated median [1]: −6.8%; ICAM-1, Week 12 EP Median (IQR) (AMR101 2 g/d + statin): 268.5 (89.0) ng/mL; IL-6, Week 12 EP Median (IQR) (AMR101 2 g/d + statin): 2.7 (2.3) pg/mL; PAI-1, Week 12 EP Median (IQR) (AMR101 2 g/d + statin): 90.3 (67.4) ng/mL; hsCRP, Week 12 EP Median (IQR) (AMR101 2 g/d + statin): 2.5 (3.4) mg/L; ICAM-1, change from Baseline, Median (IQR) (AMR101 2 g/d + statin): 1.5 (37.0) ng/mL; IL-6, change from Baseline, Median (IQR) (AMR101 2 g/d + statin): 0.2 (1.3) pg/mL; PAI-1, change from Baseline, Median (IQR) (AMR101 2 g/d + statin): 14.6 (38.8) ng/mL; hsCRP, Median % Chg from BL (IQR) (AMR101 2 g/d + statin): 10.3 (88.6) %; ICAM-1, Difference from placebo, Estimated median [2]: -6.0 ng/mL; IL-6, Difference from placebo, Estimated median [2]: -0.1 pg/mL; PAI-1, Difference from placebo, Estimated median [2]: 0.6 ng/mL; hsCRP, Difference from placebo, Estimated median [2]: −22.0%; ICAM-1, Week 12 EP Median (IQR) (AMR101 4 g/d + statin): 270.0 (110.0) ng/mL; IL-6, Week 12 EP Median (IQR) (AMR101 4 g/d + statin): 2.6 (2.1) pg/mL; PAI-1, Week 12 EP Median (IQR) (AMR101 4 g/d + statin): 85.6 (86.3) ng/mL; hsCRP, Week 12 EP Median (IQR) (AMR101 4 g/d + statin): 2.0 (3.0) mg/L; ICAM-1, change from Baseline, Median (IQR) (AMR101 4 g/d + statin): 2.5 (40.0) ng/mL; IL-6, change from Baseline, Median (IQR) (AMR101 4 g/d + statin): 0.1 (1.8) pg/mL; PAI-1, change from Baseline, Median (IQR) (AMR101 4 g/d + statin): −3.1 (45.2) ng/mL; hsCRP, Median % Chg from BL (IQR) (AMR101 4 g/d + statin): −2.4 (62.8) %
